According to ChEMBL document CHEMBL1201862, “PubChem BioAssay data set” (2004):
Active and inactive are the calls of the source.

Tests used:
[1] = target: Beta-2 adrenergic receptor (Homo sapiens, UniProt P07550); experiment: ADRB2 activation measured by internalization – cell-based, FAP fluorogen, flow cytometry, cherry pick 1, dose response (AID 588763); assay type: functional
Mu-type opioid receptor = Mu-type opioid receptor (Homo sapiens, UniProt P35372); assay type: functional, cell-based;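 also: U2OS cells with beta-arrestin recruitment to OPRM1 by beta-gal complementation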
Mu-type opioid receptor, sequence (P35372 whole entry): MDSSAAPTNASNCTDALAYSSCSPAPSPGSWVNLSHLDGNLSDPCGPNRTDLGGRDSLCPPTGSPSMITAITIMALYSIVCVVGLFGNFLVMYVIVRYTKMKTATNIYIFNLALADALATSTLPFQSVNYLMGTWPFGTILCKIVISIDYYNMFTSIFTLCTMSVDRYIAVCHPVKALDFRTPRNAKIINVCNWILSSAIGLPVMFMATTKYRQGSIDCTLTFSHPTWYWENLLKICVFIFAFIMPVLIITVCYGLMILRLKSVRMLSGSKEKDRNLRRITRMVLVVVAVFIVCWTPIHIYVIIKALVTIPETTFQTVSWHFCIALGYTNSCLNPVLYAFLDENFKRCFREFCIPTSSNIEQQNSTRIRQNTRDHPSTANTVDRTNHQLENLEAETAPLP

[2] = target: 5-hydroxytryptamine receptor 2A (Mus musculus, UniProt P35363); assay type: functional, cell-based;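 also: CHO-K1 cells with tagged receptor and beta-arrestin; agonist potency measured as compound-induced activation of the receptor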
5-hydroxytryptamine receptor 2A, sequence (P35363 whole entry): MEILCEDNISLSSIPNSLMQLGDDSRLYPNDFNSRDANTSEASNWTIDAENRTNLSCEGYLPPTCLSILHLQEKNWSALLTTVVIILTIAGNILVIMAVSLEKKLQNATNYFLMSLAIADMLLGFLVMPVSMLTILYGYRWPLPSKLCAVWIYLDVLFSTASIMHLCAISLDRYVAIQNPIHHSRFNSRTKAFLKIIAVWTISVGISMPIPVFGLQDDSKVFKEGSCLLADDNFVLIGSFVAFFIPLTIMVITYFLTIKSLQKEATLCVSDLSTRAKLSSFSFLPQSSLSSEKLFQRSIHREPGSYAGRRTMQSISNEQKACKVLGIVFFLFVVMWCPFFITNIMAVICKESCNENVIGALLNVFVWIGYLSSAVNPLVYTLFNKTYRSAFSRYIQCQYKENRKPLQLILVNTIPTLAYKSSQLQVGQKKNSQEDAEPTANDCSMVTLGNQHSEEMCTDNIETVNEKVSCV

[3] = target: DNA dC->dU-editing enzyme APOBEC-3G (Homo sapiens, UniProt Q9HC16); experiment: Dose Response confirmation of small molecule APOBEC3G DNA Deaminase Inhibitors via a fluorescence-based single-stranded DNA deaminase assay. [Related pubchem assays (depositor defined):AID493012, AID493028]; assay type: functional
[4] = target: Beta-adrenergic receptor kinase 1 (Homo sapiens, UniProt P25098); experiment: aptamer displacement from bead-bound GRK2 – biochemical, cherry pick 1, bead flow cytometry, dose response (AID 504500)
Beta-adrenergic receptor kinase 1, sequence (P25098 whole entry): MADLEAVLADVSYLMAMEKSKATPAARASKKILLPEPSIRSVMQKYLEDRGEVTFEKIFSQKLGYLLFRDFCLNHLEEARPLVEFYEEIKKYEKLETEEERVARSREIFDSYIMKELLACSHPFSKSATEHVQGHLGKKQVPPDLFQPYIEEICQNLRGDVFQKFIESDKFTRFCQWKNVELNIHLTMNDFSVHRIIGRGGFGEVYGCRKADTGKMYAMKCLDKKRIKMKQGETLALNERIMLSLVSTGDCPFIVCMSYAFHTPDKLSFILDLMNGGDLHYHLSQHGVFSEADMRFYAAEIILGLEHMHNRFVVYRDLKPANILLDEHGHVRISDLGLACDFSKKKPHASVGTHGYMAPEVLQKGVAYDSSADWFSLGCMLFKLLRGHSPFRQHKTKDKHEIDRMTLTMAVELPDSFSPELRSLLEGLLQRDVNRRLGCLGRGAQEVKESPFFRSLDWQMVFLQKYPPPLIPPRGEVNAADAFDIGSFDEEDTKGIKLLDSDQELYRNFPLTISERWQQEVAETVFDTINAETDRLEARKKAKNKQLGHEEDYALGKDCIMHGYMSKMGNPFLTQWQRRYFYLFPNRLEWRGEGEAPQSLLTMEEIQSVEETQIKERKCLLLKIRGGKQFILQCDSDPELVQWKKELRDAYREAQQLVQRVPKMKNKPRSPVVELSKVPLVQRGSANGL

[5] = viability loss in THP-1 monocytes – THP-1 cells, cytotoxicity control for Vif-APOBEC3G degradation inhibitor project, dose response (AID 1117359); assay type: functional; conditions: THP-1
[6] = target: DNA dC->dU-editing enzyme APOBEC-3A (Homo sapiens, UniProt P31941); experiment: A3A deaminase inhibition for selectivity – biochemical, dose response (AID 504722); assay type: functional
DNA dC->dU-editing enzyme APOBEC-3A, sequence (P31941 whole entry): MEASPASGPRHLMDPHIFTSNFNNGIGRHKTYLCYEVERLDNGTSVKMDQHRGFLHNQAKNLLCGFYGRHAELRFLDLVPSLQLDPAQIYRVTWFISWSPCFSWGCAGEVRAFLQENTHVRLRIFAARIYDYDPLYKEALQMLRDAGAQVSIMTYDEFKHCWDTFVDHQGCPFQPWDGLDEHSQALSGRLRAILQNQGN

[7] = target: T1, Small ubiquitin-related modifier 1 (Homo sapiens, UniProt P63165); experiment: SUMO1 protein interaction blockers, potency – biochemical, fluorescence polarization, uHTS hits, dose response (AID 624382); assay type: functional; conditions: read-out: IC50_Mean
T1 sequence (P63165 whole entry, the tested form may be a part): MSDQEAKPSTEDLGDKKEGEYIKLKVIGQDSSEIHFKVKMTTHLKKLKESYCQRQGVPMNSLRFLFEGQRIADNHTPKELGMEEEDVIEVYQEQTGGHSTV

[8] = target: T2, Carboxy-terminal domain RNA polymerase II polypeptide A small phosphatase 1 (Homo sapiens, UniProt Q9GZU7); experiment: CTDSP1 inhibitors, concentration-response, biochemical, absorbance readout, ultra-high-throughput screen actives (AID 540297); assay type: functional
T2 sequence (Q9GZU7 whole entry): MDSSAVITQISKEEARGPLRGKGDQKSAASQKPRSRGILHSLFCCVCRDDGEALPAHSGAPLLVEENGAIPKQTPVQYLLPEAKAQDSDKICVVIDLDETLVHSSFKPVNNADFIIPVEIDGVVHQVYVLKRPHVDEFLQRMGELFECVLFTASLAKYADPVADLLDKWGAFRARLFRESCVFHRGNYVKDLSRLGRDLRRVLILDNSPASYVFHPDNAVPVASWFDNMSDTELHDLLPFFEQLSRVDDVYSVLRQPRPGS

[9] = target: T1, Small ubiquitin-related modifier 1; experiment: SUMO1 protein-protein binding blockers, potency – biochemical, FRET, dose response (AID 624383); assay type: functional; conditions: read-out: IC50_Mean
[10] = luciferase reporter signal suppression in cells – H4 neuroglioma cells, luminescence, dose response (AID 1990); assay type: functional, cell-based
[11] = HIV-1 AD8 envelope cell-cell fusion blockers – cherry-pick, dose response (AID 652062); assay type: functional, cell-based;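 also: luciferase signal from cell-cell fusion driven by HIV-1 clade B AD8 Env; potency is for inhibitors of fusion seen as a drop in luminescence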
BJ [12] = experiment: growth inhibition of engineered Ras-driven BJ cells – cell-based, alamar blue fluorescence, cherrypicked samples, dose response (AID 2631); assay type: functional; conditions: Homo sapiens;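 also: confirmatory dose-response assay in RAS-dependent BJ fibroblasts engineered with TERT, LT and ST, with cytotoxicity read by fluorescence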
[13] = fluconazole-exposed Candida albicans growth modulators – fluorescence, retest, confirmation (AID 2467); assay type: functional, cell-based
[14] = target: Mitochondrial peptide methionine sulfoxide reductase (Bos taurus, UniProt P54149); assay type: functional;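 also: absorbance read-out, biochemical high-throughput dose-response screen for MsrA inhibitors, confirmatory; recombinant bovine MsrA coupled to E. coli TrxB with NADPH and selenocystamine; potency is for inhibitors of MsrA activity on DMSO substrate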
[15] = target: Heat shock protein HSP 90-alpha (Homo sapiens, UniProt P07900); assay type: functional, organism-based
[16] = NIH-3T3 fibroblast cytotoxicity, dose response, cytotoxicity control, cell-based, fluorescence, Alamar Blue, secondary assay (AID 2327); assay type: functional;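 also: NIH-3T3 mouse fibroblasts cultured with fluconazole at 8 µg/mL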
[17] = target: T3, V-type proton ATPase subunit c' (Saccharomyces cerevisiae S288c, UniProt P32842); experiment: Dose Response of Small Molecules that Regulate V-ATPase Proton Transport in Yeast using pHLuorin, Cherry Pick 2.; assay type: functional; conditions: read-out: EC50_MICROM
T3 sequence (P32842 whole entry): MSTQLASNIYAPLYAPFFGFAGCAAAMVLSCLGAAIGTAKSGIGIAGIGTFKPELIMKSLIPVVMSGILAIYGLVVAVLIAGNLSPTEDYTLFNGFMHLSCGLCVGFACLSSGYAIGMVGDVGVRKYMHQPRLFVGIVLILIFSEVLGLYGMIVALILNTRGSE

[18] = target: T4, Heat shock factor protein 1 (Mus musculus, UniProt P38532); experiment: decrease of HSF1-responsive luciferase luminescence – cell-based, NIH3T3, dose retest, confirmation (AID 2382); assay type: functional;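 also: NIH3T3 fibroblasts with HSF1-driven luciferase reporter stressed by proteasome inhibitor MG132; luminescence from HSF1-driven luciferase expression after 8 hours of MG132 stress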
T4 sequence (P38532 whole entry): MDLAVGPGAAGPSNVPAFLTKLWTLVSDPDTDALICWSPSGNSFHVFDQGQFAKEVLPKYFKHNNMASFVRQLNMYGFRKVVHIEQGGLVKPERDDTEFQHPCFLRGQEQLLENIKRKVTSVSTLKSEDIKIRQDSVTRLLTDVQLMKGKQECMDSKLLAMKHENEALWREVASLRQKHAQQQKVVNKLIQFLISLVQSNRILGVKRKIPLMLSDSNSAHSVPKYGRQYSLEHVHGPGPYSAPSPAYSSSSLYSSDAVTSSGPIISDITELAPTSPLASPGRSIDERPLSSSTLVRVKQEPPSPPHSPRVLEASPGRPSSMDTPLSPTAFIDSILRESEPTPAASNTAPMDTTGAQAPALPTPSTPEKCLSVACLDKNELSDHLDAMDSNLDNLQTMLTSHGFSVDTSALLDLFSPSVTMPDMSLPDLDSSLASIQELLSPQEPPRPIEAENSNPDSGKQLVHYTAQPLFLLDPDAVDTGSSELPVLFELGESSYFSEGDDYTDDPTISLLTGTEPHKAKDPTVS

[19] = Luminescence-based dose response cell-based high throughput screening assay for cytotoxic compounds using the IEC-6 intestinal epithelial cell line. [Related pubchem assays: 1858 (Summary AID.), 1825 (Counterscreen.), 1907 (Confirmation screen.)]; assay type: functional
[20] = off-target signal loss in HeLa-CEM21 co-culture – HeLa F-luc CTL cells, cherry-picked, counter-screen for HIV-1 Env fusion inhibitor project, dose response (AID 652040); assay type: functional, cell-based;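 also: potency for signal decrease marking cytotoxic or nonspecific inhibition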
BJ [21] = experiment: cells; assay type: functional, cell-based; conditions: Homo sapiens
[22] = blockers of HIV-1 envelope-mediated cell-cell fusion – cherry-pick, dose response (AID 652057); assay type: functional, cell-based
[23] = target: T3, V-type proton ATPase subunit c'; experiment: Dose Response of Small Molecules that Regulate V-ATPase Proton Transport in Yeast using pHLuorin, Cherry Pick 1. [Related pubchem assays (depositor defined):AID504622]; assay type: functional
Fatty acid synthase [24] = target: T5, Fatty acid synthase (Homo sapiens, UniProt P49327); experiment: inhibition of human FAS-TE enzyme activity – biochemical, endpoint fluorescence intensity, uHTS hits, dose response (AID 624327); assay type: functional;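 also: fluorescence from hydrolysis of an O-methyl fluorescein acyl ester substrate by the enzyme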
T5 sequence (P49327 whole entry): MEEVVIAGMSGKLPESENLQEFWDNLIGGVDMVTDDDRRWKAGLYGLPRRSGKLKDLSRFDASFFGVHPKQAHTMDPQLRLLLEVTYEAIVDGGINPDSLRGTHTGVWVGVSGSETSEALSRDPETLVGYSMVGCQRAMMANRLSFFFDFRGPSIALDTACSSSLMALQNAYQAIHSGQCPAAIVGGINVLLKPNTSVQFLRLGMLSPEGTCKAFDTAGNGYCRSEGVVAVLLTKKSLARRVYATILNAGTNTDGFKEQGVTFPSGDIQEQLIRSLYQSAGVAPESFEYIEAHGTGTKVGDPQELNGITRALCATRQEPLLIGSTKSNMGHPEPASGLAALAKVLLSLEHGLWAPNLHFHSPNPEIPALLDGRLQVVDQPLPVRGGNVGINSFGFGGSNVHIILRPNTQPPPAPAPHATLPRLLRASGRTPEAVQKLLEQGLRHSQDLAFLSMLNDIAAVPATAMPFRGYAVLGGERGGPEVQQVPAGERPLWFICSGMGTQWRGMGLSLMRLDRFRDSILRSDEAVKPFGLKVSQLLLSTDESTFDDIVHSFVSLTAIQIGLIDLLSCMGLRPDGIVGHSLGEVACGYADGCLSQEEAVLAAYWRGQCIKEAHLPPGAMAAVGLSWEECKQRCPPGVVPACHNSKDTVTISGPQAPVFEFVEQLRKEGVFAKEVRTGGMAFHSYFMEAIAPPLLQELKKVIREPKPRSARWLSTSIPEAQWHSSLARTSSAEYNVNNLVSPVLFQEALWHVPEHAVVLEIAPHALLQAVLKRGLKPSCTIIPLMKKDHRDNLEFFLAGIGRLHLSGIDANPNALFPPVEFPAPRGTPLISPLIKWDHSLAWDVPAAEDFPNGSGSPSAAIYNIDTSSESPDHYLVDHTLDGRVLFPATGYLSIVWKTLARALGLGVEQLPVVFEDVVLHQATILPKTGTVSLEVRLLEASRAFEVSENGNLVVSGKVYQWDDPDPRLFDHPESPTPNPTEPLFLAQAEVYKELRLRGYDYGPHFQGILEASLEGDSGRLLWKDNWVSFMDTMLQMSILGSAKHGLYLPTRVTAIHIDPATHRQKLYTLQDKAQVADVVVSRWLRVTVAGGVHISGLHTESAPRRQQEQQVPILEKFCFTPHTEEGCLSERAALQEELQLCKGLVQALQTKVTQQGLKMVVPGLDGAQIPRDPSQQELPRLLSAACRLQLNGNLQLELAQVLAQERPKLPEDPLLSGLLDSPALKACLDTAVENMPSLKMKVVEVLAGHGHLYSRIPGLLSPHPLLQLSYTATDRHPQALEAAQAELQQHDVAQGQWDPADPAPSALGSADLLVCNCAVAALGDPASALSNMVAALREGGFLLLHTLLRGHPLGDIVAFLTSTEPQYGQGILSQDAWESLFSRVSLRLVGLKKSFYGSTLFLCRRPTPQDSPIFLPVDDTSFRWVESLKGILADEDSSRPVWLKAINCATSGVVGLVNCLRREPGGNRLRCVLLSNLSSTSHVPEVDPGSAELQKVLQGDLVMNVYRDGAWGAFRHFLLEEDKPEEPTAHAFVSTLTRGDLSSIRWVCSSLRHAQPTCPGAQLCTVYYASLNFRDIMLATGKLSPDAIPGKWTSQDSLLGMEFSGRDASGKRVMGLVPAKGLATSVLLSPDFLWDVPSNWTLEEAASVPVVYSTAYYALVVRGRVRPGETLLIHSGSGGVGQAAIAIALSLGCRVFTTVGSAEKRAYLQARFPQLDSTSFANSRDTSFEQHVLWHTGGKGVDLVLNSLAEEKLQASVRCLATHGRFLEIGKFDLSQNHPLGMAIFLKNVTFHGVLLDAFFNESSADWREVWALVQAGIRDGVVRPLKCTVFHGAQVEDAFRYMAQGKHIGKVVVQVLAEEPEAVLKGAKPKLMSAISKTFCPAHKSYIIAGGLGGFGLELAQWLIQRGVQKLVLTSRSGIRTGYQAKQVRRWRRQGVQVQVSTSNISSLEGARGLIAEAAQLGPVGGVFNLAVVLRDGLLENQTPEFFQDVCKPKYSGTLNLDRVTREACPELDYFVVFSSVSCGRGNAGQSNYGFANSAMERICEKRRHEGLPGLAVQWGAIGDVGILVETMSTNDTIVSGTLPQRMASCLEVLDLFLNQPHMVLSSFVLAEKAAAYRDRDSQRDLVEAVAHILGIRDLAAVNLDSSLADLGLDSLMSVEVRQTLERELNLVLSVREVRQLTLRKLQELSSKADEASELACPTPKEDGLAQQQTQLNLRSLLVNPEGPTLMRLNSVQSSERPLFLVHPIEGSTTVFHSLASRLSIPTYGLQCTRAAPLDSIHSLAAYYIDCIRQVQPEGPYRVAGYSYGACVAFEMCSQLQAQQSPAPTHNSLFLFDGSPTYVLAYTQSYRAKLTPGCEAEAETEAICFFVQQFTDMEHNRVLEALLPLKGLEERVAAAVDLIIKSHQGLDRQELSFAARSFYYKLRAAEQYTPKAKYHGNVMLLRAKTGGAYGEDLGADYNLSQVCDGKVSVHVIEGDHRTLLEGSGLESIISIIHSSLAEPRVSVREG

[25] = HEK-293T viability loss after treatment – luminescence, T-cell screen hits, cytotoxicity control for TCR NF-kB inhibitor project, dose response (AID 489026); assay type: functional, cell-based;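 also: cells exposed to compound about 14 hours before the viability readout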
BJ [26] = experiment: BJ-TERT-LT-ST fibroblast viability loss – cell-based, RAS-independent, luminescence, dose response (AID 1935); assay type: functional; conditions: Homo sapiens;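 also: BJ fibroblasts immortalized with TERT plus LT and ST oncogenes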
[27] = DRD fibroblast viability loss – cell-based, non-viral oncogenic, luminescence, dose response (AID 1934); assay type: functional; conditions: Homo sapiens
[28] = viability loss in CEM21 cells – cell-based, CellTiter-Glo luminescence, cherry-picked, cytotoxicity control for viral fusion inhibitor project, dose response (AID 652042); assay type: functional;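 also: potency for signal decrease meaning cytotoxicity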
[29] = blockers of HIV-1 ZM109 envelope-driven cell-cell fusion – HeLa effector, CEM target cells, luciferase, cherry-pick, dose response (AID 652058); assay type: functional, cell-based;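 also: luciferase signal from HIV-1 Env mediated cell-cell fusion of effector and target cells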
[30] = alpha-synuclein stem-loop luciferase translation blockers – H4 neuroglioma cells, luminescence, confirmation (AID 1988); assay type: functional, cell-based
Fatty acid synthase [31] = target: T5, Fatty acid synthase; experiment: inhibition of human FAS-TE enzyme activity – biochemical, kinetic fluorescence intensity, dose response (AID 624326); assay type: functional;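 also: rate of fluorescence rise from hydrolysis of a fluorogenic O-methyl fluorescein ester substrate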
[32] = Luminescence Cell-Based Dose Response HTS to Identify Inhibitors of 5'UTR Stem-Loop Driven Prion Protein mRNA Translation in H4 Neuroglioblastoma Cells. [Related pubchem assays: 1827 (Project Summary), 1813 (Primary HTS)]; assay type: functional
BJ [33] = experiment: BJ-TERT fibroblast viability loss – cell-based, RAS-independent, luminescence, dose response (AID 1933); assay type: functional; conditions: Homo sapiens

Beta-2 adrenergic receptor, sequence (P07550 whole entry): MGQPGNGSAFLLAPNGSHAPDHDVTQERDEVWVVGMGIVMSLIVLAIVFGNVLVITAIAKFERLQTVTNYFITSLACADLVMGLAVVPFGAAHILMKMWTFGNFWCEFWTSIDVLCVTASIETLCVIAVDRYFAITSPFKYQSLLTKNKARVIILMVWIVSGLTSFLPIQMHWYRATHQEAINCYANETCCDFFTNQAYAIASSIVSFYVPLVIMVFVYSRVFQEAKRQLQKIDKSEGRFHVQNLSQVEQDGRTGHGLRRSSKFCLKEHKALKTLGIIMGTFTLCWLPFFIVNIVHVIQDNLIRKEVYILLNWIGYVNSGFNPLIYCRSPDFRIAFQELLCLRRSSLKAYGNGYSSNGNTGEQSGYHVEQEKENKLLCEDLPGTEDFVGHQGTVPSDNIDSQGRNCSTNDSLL

For `CC(=O)N1CCc2cc(C(=O)CN3CCN(c4cccc(Cl)c4)CC3)ccc21`, the EC50 [1] was 47.2 nM (active), the EC50 (Mu-type opioid receptor) was 92500 nM (inactive) and the EC50 [2] was 133 nM (active).

In the case of `C=C(C)C(=O)Nc1cccc(C2=NOC3(C2)C[C@@H](C(N)=O)N(C(=O)CC(c2ccccc2)c2ccccc2)C3)c1` (some centres undefined), the IC50 [3] is reported as 15300 nM (active), the EC50 [4] is reported as 1940 nM (active) and the CC50 [5] is reported as > 40000 nM (active). The IC50 [6] was > 100000 nM (inactive), the IC50 [7] was > 66600 nM (inactive) and the IC50 [8] was 6380 nM (active). For the same compound, the IC50 [9] was 5400 nM (active).

With `CCOC(=O)NN=C1c2ccccc2-c2nc3nonc3nc21` the EC50 [10] was 234 nM (active), the AC50 [11] was 3360 nM (active) and the EC50 (BJ [12]) was 1860 nM (active). The EC50 [13] was 83 nM (active), the IC50 [14] was 155000 nM (inactive) and the AC50 [15] was 1260 nM (active). For the same compound, the EC50 [16] was 1710 nM (active), the EC50 [17] was 2370 nM (active) and the EC50 [18] was 3640 nM (active). For the same compound, the IC50 [19] was 223 nM (active), the AC50 [20] was 3560 nM (active) and the EC50 (BJ [21]) was 587 nM (inconclusive). For the same compound, the AC50 [22] was 4410 nM (active), the EC50 [23] was 27100 nM (active) and the IC50 (Fatty acid synthase [24]) was 1670 nM (active). For the same compound, the IC50 [25] was 3200 nM (active), the EC50 (BJ [26]) was 1350 nM (inconclusive) and the EC50 [27] was 2390 nM (active). The AC50 [28] was 1700 nM (active), the AC50 [29] was 2960 nM (active) and the EC50 [30] was 131 nM (active). The IC50 (Fatty acid synthase [31]) was 859 nM (active), the EC50 [32] was 593 nM (active) and the EC50 (BJ [33]) was 2330 nM (active).
